Results published in patent US10391173B2, “Anti-ar agent and radiation therapy for androgen receptor positive cancer” (The Cleveland Clinic Foundation, priority 2016, dated 2019).

Tests used:
[1] = tested on: C4-2 prostate cancer cells; conditions: AR-positive cells; 2 Gy
Procedure: (a) (Top) Cells were cultured in steroid-deprived media −/+ DHT for 24 hours and then treated with IR: mock (ϕ), 4 Gy, or 6 Gy. Cells were then supplemented with hormone-proficient media at 48 hours post-IR. […] (Bottom) Cells were cultured in hormone-proficient media for 24 hours without or with enzalutamide (ENZ) and then treated with IR; mock (ϕ) or 4 Gy. Error bars represent normalized s.e.m of at least three experiments. […] Error bars represent normalized s.e.m of at least three experiments and the Student's t-test was used for statistical analysis. *, P<0.05. […] Error bars represent s.e.m of at least three experiments and the Student's t-test was used for statistical analysis. *, P<0.05. (d) Cells were cultured in hormone-proficient (FBS) media for 24 hours −/+ ENZ and then treated with IR: mock (ϕ 3 Gy (HMC18 and MDAMB453), or 2 Gy (C4-2). Cells were cultured in steroid-deprived media for 48 hours, treated −/+ DHT for 24 hours, and then treated with IR: mock (ϕ), 3 Gy (HMC18 and MDAMB453), or 2 Gy (C4-2). γH2AX, HDAC1, and actin levels were measured at the indicated time points. Relative intensity of γH2AX was calculated by ImageJ64. (e) MDAMB453 cells were cultured in steroid-replete, steroid-deficient, or steroid-deficient with 1 nM DHT for 24 hours, then treated with irradiation. Cells were harvested and expression of γDNAPKcs was analyzed. […]

MDAMB453 cells [2] = experiment: γH2AX formation and resolution kinetics (Western blot); format: cell-based, human; conditions: 3 Gy; effect persisted at 24 hours
MDAMB453 cells [3] = experiment: Neutral comet assay; format: cell-based, human; conditions: pretreated 24 hours prior to 15 Gy of irradiation; ENZ 20 μM
Procedure: (§1) Single-cell gel electrophoresis was conducted in alkaline or neutral buffer according to the manufacturer's instructions, Trevigen (Gaithersburg, Md.). Slides were blinded and enumerated by a single user.

MDAMB453 cells [4] = experiment: Growth survival assay after IR with DHT or ENZ pretreatment; format: cell-based, human
Procedure: (a) (Top) Cells were cultured in steroid-deprived media −/+ DHT for 24 hours and then treated with IR: mock (ϕ), 4 Gy, or 6 Gy. Cells were then supplemented with hormone-proficient media at 48 hours post-IR. Cell number was determined on day 14-21. (Bottom) Cells were cultured in hormone-proficient media for 24 hours without or with enzalutamide (ENZ) and then treated with IR; mock (ϕ) or 4 Gy. Error bars represent normalized s.e.m of at least three experiments. (b) MCF7, BT474, CAMA1, HCC202, and MDAMB453 cells were treated with ENZ, ENZ+IR, DHT, or DHT+IR as in (a). […] Error bars represent normalized s.e.m of at least three experiments and the Student's t-test was used for statistical analysis. *, P<0.05. […]
(§2) Cells were plated using a Multidrop Combi liquid handler (Thermo Fisher) in at least quadruplicates for each time point at three cell densities (range 25-225 cells per well) in a white 384-well plate (Corning, N.Y.). […] Relative luminescence units were measured using an Envision multilabel plate reader (Perkin Elmer) with a measurement time of 0.1 seconds. Luminescence signal is proportional to the amount of ATP present. […] The luminescence signal was plotted as a function of cell density and a cell density within the linear range for luminescence (or growth) was selected to generate integral survival for each cell line. […]

MDAMB453 cells [5] = conditions: steroid-deprived media supplemented with 1 nM DHT for 24 hours
Procedure: (d) Cells were cultured in hormone-proficient (FBS) media for 24 hours −/+ ENZ and then treated with IR: mock (ϕ 3 Gy (HMC18 and MDAMB453), or 2 Gy (C4-2). Cells were cultured in steroid-deprived media for 48 hours, treated −/+ DHT for 24 hours, and then treated with IR: mock (ϕ), 3 Gy (HMC18 and MDAMB453), or 2 Gy (C4-2). γH2AX, HDAC1, and actin levels were measured at the indicated time points. Relative intensity of γH2AX was calculated by ImageJ64. (e) MDAMB453 cells were cultured in steroid-replete, steroid-deficient, or steroid-deficient with 1 nM DHT for 24 hours, then treated with irradiation. Cells were harvested and expression of γDNAPKcs was analyzed.
Whole cell lysates were prepared using M-PER lysis buffer and clarified by centrifugation. Proteins were separated by SDS-PAGE and transferred onto 0.45 μM nitrocellulose membranes (Maine Manufacturing; Sanford, Me.). After primary antibody incubation for 1-2 hours at room temperature, washings, and incubation with secondary antibodies, blots were developed with a chemoluminescence system (Amersham/GE Healthcare). For γH2AX measurements, proteins were transferred onto 0.2 μM nitrocellulose (Bio-Rad).
The phosphorylation of DNAPKcs on Ser2056 was examined, which is indicative of activated DNAPKcs, in MDAMB453 cells.

[6] = tested on: MCF7, BT474, CAMA1, HCC202, MDAMB453, HMC18 cells; experiment: Growth survival assay after IR across several breast cancer cell lines; format: cell-based, human; conditions: only in cell lines that expressed AR, independent of ER and ErbB2 activity
Procedure: (a) (Top) Cells were cultured in steroid-deprived media −/+ DHT for 24 hours and then treated with IR: mock (ϕ), 4 Gy, or 6 Gy. Cells were then supplemented with hormone-proficient media at 48 hours post-IR. Cell number was determined on day 14-21. (Bottom) Cells were cultured in hormone-proficient media for 24 hours without or with enzalutamide (ENZ) and then treated with IR; mock (ϕ) or 4 Gy. Error bars represent normalized s.e.m of at least three experiments. (b) MCF7, BT474, CAMA1, HCC202, and MDAMB453 cells were treated with ENZ, ENZ+IR, DHT, or DHT+IR as in (a). HMC18 cells were treated similarly but were profiled by clonogenic survival assays. […]
as §2

[7] = tested on: MDAMB453 orthotopic xenografts; experiment: MDAMB453 orthotopic xenograft study
Procedure: (g) MDAMB453 cells were orthotopically injected into the mammary gland of NSG mice and block randomized into one of four treatment arms as shown. Tumor volume was measured daily. Error bars represent normalized s.e.m of at least seven mice in each treatment arm. *, P<0.05 compared with all other treatment conditions based on ANOVA and Tukey Contrasts. **, P<0.05 for interaction based on two-way ANOVA. […] This cohort received ENZ at 25 mg kg^−1. (i) Average weight for each arm in both cohorts was measured weekly. Data are expressed as the means±s.e. of at least seven mice in each treatment arm.
Female NSG mice, 6-8 weeks of age, were obtained from the Cleveland Clinic Biological Resources Unit facility. All mouse studies were conducted under a protocol approved by the Cleveland Clinic Institutional Animal Care and Use Committee MDAMB453 cells were resuspended in serum free media and injected into the inguinal mammary gland. Once tumors reached 200 mm^3, mice were block randomized and assigned to vehicle, enzalutamide, vehicle plus radiotherapy, or enzalutamide plus radiotherapy. Two cohorts consisting of these four arms underwent treatment. Vehicle consisted of a volume of 5 mL per kg of PEG-400 solution containing 1.5%/0 of DMSO for cohort 1 and 2.5% DMSO for cohort 2 via oral gavage daily. Cohort 1 received enzalutamide at 15 mg kg^−1 and cohort 2 received enzaluatmide at 25 mg kg^−1. Radiotherapy was delivered to a dose of 1.5 Gy in three fractions once tumor size reached 250 mm^3. Treatment was not blinded to the investigator. Tumor volume was measured daily. Mice were sacrificed once their tumors reached an approximate size of 1,000 mm^3 or at treatment days 21-28. The significance of the difference between treatment groups was assessed by one-way and the interaction between drug and radiation was measured by two-way ANOVA.

HMC18 cells = experiment: γH2AX formation and resolution kinetics (Western blot); format: cell-based, human; conditions: AR-negative cells; 3 Gy
BT474 cells = experiment: Neutral comet assay; format: cell-based, human; conditions: irradiated (10 Gy) after 24 hours of treatment with ENZ (20 μM)
Procedure: FIG. 16: AR regulates DNA damage and repair in AR, ER positive cells.
as §1

Row | SMILES | γH2AX resolution [1] | Levels of γH2AX after irradiation (MDAMB453 cells [2]) | DNA damage (double-strand breaks) (MDAMB453 cells [3]) | Cell growth after radiation (MDAMB453 cells [4]; DHT re-supplementation in steroid-deprived media before radiation, IR 4 or 6 Gy) | γDNAPKcs levels following irradiation (MDAMB453 cells [5]) | Protection or sensitization to radiation [6] | Cell number after radiation (MDAMB453 cells [4]; hormone-proficient media, ENZ 24 hours before IR 4 Gy, compared to vehicle) | Tumor growth, ENZ alone ([7]; 15 mg kg^−1, used alone) | Tumor suppression, interaction with radiotherapy ([7]; 15 mg kg^−1 plus radiotherapy) | Tumor growth, ENZ ([7]; 25 mg kg^−1) | Body weight loss during the course of treatment ([7]; ENZ 25 mg kg^−1 and radiation) | Tumor growth, combination with ionizing radiation ([7]; ENZ at 15 mg kg^−1 or 25 mg kg^−1 plus ionizing radiation) | Kinetics of γH2AX formation and resolution (HMC18 cells) | Double-strand breaks (BT474 cells)
1 | C[C@]12CCC(=O)C[C@@H]1CC[C@@H]1[C@@H]2CC[C@]2(C)[C@@H](O)CC[C@@H]12 [DHT, Dihydrotestosterone] | hastened γH2AX resolution | decreased | decreased | dose dependent rescue of cell growth | maintained γDNAPKcs at similar levels to those cells grown in the steroid-replete media | protection | – | – | – | – | – | – | – | –
2 | CNC(=O)c1ccc(N2C(=S)N(c3ccc(C#N)c(C(F)(F)F)c3)C(=O)C2(C)C)cc1F [ENZ, enzalutamide] | – | increased shortly after irradiation | increased DNA damage | – | – | sensitization | decreased cell number compared to vehicle alone | no effects on tumor growth | interactive tumor suppression with radiotherapy | Suppression of tumor growth | ~10% | more effective suppression of tumor growth than either modality alone | unaffected | increased double-strand breaks
